Common to all, as to type: in vivo
The subject of assay [1] is velvetleaf (Abutilon theophrasti Medic.). Description: Test Example 1: pot test, soil treatment, growth inhibition of velvetleaf. As to conditions: read-out: Growth inhibition rate of velvetleaf (%) Measured value. The text has this: Upland field soil was put into a 1/300,000 ha pot, and seeds of velvetleaf (Abutilon theophrasti Medic.) were sown. On the next day, predetermined amounts of a flowable containing nicosulfuron as an active ingredient (tradename: ONEHOPE NYUZAI, manufactured by Ishihara Sangyo Kaisha, Ltd.), an emulsifiable concentrate containing dimethenamid-P as an active ingredient (tradename: Spectrum, manufactured by BASF) and a flowable containing topramezone as an active ingredient (tradename: Clio, manufactured by BASF) were diluted with water (in an amount corresponding to 1,000 L/ha) and applied for soil treatment by a small sprayer.
On the 28th day after treatment, the state of growth of the velvetleaf was visually observed to determine the growth inhibition rate (%) in accordance with the following evaluation standard. The growth inhibition rate (%) (measured value) and the growth inhibition rate (%) (calculated value) calculated by the Colby's formula are shown in Table 1.
(§1) Growth inhibition rate (%)=0 (equivalent to the non-treated area) to 100 (complete kill)

The subject of assay [2] is korean lespedeza (Kummerowia stipulacea (Maxim.) Makino). The experiment in a line: Test Example 2: pot test, soil treatment, growth inhibition of korean lespedeza. Conditions: read-out: Growth inhibition rate of korean lespedeza (%) Measured value. As to the method:
as §1
Upland field soil was put into a 1/160,000 ha pot, and seeds of korean lespedeza (Kummerowia stipulacea (Maxim.) Makino) were sown. On the next day, predetermined amounts of ONEHOPE NYUZAI (tradename), Clio (tradename) and Spectrum (tradename) were diluted with water (in an amount corresponding to 300 L/ha) and applied for soil treatment by a small sprayer.
On the 14th day after treatment, the state of growth of the korean lespedeza was visually observed to determine the growth inhibition rate (%). The growth inhibition rate (%) (measured value) and the growth inhibition rate (%) calculated in the same manner as in the above Test Example 1 are shown in Table 2.

Assay [3] concerns annual ragweed (Ambrosia artemisiifolia L.). The experiment in a line: Test Example 3: pot test, foliar treatment, growth inhibition of annual ragweed. As to conditions: read-out: Growth inhibition rate of annual ragweed (%) Measured value. The procedure:
as §1
Upland field soil was put into a 1/1,000,000 ha pot, and seeds of annual ragweed (Ambrosia artemisiifolia L.) were sown. When the annual ragweed reached 6.0 to 8.0-leaf stage, predetermined amounts of ONEHOPE NYUZAI (tradename), Clio (tradename) and Spectrum (tradename) were diluted with water (in an amount corresponding to 300 L/ha) and applied for foliar treatment by a small sprayer.
On the 20 th day after treatment, the state of growth of the annual ragweed was visually observed to determine the growth inhibition rate (%). The growth inhibition rate (%) (measured value) and the growth inhibition rate (%) calculated in the same manner as in the above Test Example 1 are shown in Table 3.

For assay [4], the system named is wild oat (Avena fatua L.). Description: Test Example 4: pot test, soil treatment, growth inhibition of wild oat. Conditions: read-out: Growth inhibition rate of wild oat (%) Measured value. As to the method:
as §1
Upland field soil was put into a 1/160,000 ha pot, and seeds of wild oat (Avena fatua L.) were sown. On the next day, predetermined amounts of ONEHOPE NYUZAI (tradename), Clio (tradename) and Spectrum (tradename) were diluted with water (in an amount corresponding to 300 L/ha) and applied for soil treatment by a small sprayer.
On the 28 th day after treatment, the state of growth of the wild oat was visually observed to determine the growth inhibition rate (%). The growth inhibition rate (%) (measured value) and the growth inhibition rate (%) calculated in the same manner as in the above Test Example 1 are shown in Table 4.

Among the data in US9420794B2, “Herbicidal composition” (ISHIHARA SANGYO KAISHA, LTD., priority 2012, dated 2016) are inhibition values, retold here.

Each structure is given as a SMILES string. Like-named read-outs stand apart in the source and are kept apart here.

A word on the inhibition: it is the relative decrease from the control value, in per cent. Take `Cc1c(C(=O)c2cnn(C)c2O)ccc(S(C)(=O)=O)c1C1=NOCC1` [Topramezone, [3-(4,5-dihydro-1,2-oxazol-3-yl)-4-mesyl-o-tolyl](5-hydroxy-1-methylpyrazol-4-yl)methanone]: in assay [1] (soil), the inhibition at 20 g/ha was 60%. Further, in assay [2] (soil), the inhibition at 15 g/ha stood at 0% and the inhibition at 100 g/ha was 10%. Moreover, in assay [3] (foliar), the inhibition at 20 g/ha amounted to 40% and the inhibition at 50 g/ha worked out at 65%. In assay [4] (soil), the inhibition at 15 g/ha stood at 0%.

Take `COc1cc(OC)nc(NC(=O)NS(=O)(=O)c2ncccc2C(=O)N(C)C)n1` [Nicosulfuron, 2-(4,6-dimethoxypyrimidin-2-ylcarbamoylsulfamoyl)-N,N-dimethylnicotinamide]: the inhibition at 15 g/ha in assay [1] (dose 15 g/ha, soil treatment, 28th day after treatment) is 0%. Also, the inhibition at 10 g/ha in assay [2] (dose 10 g/ha, soil treatment, 14th day after treatment) was found to be 0%. In addition, the inhibition at 100 g/ha in assay [2] (dose 100 g/ha, soil treatment, 14th day after treatment) was determined as 10%; in assay [4] (dose 100 g/ha, soil treatment, 28th day after treatment), 60%. For the same compound, the inhibition at 30 g/ha in assay [3] (dose 30 g/ha, foliar treatment at 6.0 to 8.0-leaf stage, 20th day after treatment) worked out at 13%.

Take `COC[C@H](C)N(C(=O)CCl)c1c(C)csc1C` [Dimethenamid-P, (S)-2-chloro-N-(2,4-dimethyl-3-thienyl)-N-(2-methoxy-1-methylethyl)acetamide]: the inhibition at 500 g/ha came out at 20% in assay [1] (dose 500 g/ha, soil treatment, 28th day after treatment) and 0% in assay [3] (dose 500 g/ha, foliar treatment at 6.0 to 8.0-leaf stage, 20th day after treatment). Also, the inhibition at 250 g/ha in assay [2] (dose 250 g/ha, soil treatment, 14th day after treatment) is 30%; in assay [4] (dose 250 g/ha, soil treatment, 28th day after treatment), 60%. Besides, the inhibition at 1500 g/ha in assay [2] (dose 1500 g/ha, soil treatment, 14th day after treatment) was 30%. For the same compound, in assay [3] (dose 1000 g/ha, foliar treatment at 6.0 to 8.0-leaf stage, 20th day after treatment), the inhibition at 1000 g/ha is 0%.
